Read-outs that look alike come from different tables or passages of the source.
Tests used:
Bovine brain tubulin = assay: Inhibition of tubulin polymerization (turbidimetric assembly); type: biochemical; conditions: tubulin at 10 μM, 20 min incubation; read-out: Tubulin assembly IC50 ± SD
Protocol: (§1) Bovine brain tubulin was purified as described previously. To evaluate the effect of the compounds on tubulin assembly in vitro [59], varying concentrations were preincubated with 10 μM tubulin in 0.8 M glutamate buffer at 30 °C and then cooled to 0 °C. After addition of GTP, the mixtures were transferred to 0 °C cuvettes in a recording spectrophotometer and warmed to 30 °C, and the assembly of tubulin was observed turbidimetrically. […] The ability of the test compounds to inhibit colchicine binding to tubulin was measured as described earlier, except that the reaction mixtures contained 1 μM tubulin, 5 μM of [^3H]colchicine, and test compounds 3a or 3b.

K562 cells [1] = assay: Apoptosis assay (Muse Annexin V & Dead Cell Kit); type: cell-based, human; conditions: K562, 72 h, representative experiment; for cells undergoing apoptosis (total) at IC50: at IC50 (3a 0.75 μM, 3b 0.70 μM); for cells undergoing apoptosis (total) at IC75: at IC75 (3a 1.00 μM, 3b 0.90 μM)
Text: This phospholipid flips from the inner to the outer leaflet of the plasma membrane during apoptosis. Positive staining with annexin-V correlates with the loss of plasma membrane polarity, but this staining precedes the complete loss of membrane integrity that accompanies the later stages of cell death, resulting from either apoptosis or necrosis. In contrast, PI can only enter cells after complete loss of membrane integrity. Thus, dual staining for annexin-V and with PI permits discrimination between unaffected cells (annexin-V^−/PI^−), early apoptotic cells (annexin-V^+/PI^−), late apoptotic cells (annexin-V^+/PI^+), and necrotic cells (annexin-V^−/PI^+).
Apoptosis assays on K562 cells were performed with the Muse Cell Analyzer instrument, and assays were performed according to the instructions supplied by the manufacturer. The Muse Annexin V & Dead Cell Kit employs annexin V to detect phosphatidyl serine (PS) on the external membrane of apoptotic cells. A fluorescent DNA intercalator (7-ADD: 7-aminoactinomycin D) is also used as an indicator of cell membrane integrity. From live, healthy cells, as well as early apoptotic cells, 7-ADD is excluded while it is able to bind DNA in cells in late apoptosis and in dead cells. Cells were washed with sterile PBS 1X, suspended, and diluted (1:2) with the Muse Annexin V & Dead Cell reagent. Samples were gently mixed and incubated at room temperature, protected from the light for 15 min. Samples were analyzed using a Muse Cell Analyzer, and data from prepared samples were acquired and recorded utilizing the Annexin V and Dead Cell Software Module (Millipore).

[2] = tested on: human cervix carcinoma (HeLa) cells; assay: In vitro antiproliferative assay, HeLa cells; type: cell-based; conditions: for fold more active than 2b against HeLa cells: relative to 2b (IC50: 41 μM); for IC50: human cervix carcinoma HeLa, 72 h, cell count, mean ± SE
Protocol: (§2) Murine leukemia L1210, human T-lymphocyte leukemia CEM, human cervix carcinoma (HeLa), and human chronic myelogenous leukemia K562 cells (3–5 × 10^4 cells) and a serial (5-fold) dilution of the test compounds were added to a 96-well microtiter plate. The cells were incubated for 72 h at 37 °C in a humidified 5% CO2 atmosphere. At the end of the incubation period, the cells were counted in a Coulter Counter (Coulter Electronics Ltd., Harpenden Herts, United Kingdom). […] The IC50 values represent the average (± standard deviation) of three independent experiments. Human peripheral blood mononuclear cells (PBMC) were obtained from healthy donors by centrifugation with Ficoll-Paque Plus (GE Healthcare Bio-Sciences AB, Uppsala).

[3] = tested on: human T-lymphoblastoid leukemia (CEM) cells; assay: In vitro antiproliferative assay, CEM cells; type: cell-based; conditions: CCRF-CEM; human T-lymphocyte CEM, 72 h, cell count; mean ± SE
Protocol: as §2

[4] = tested on: human chronic myelogenous leukemia K562 cells; assay: In vitro antiproliferative assay, K562 cells; type: cell-based; conditions: 72 h; for IC50: Homo sapiens
Protocol: These values are 1.5-fold lower than those obtained with the 6-methoxycarbonyl derivative 3a against L1210 and HeLa cells, while both compounds were equipotent against CEM cells.
(§3) Murine leukemia L1210, human T-lymphocyte leukemia CEM, human cervix carcinoma (HeLa), and human chronic myelogenous leukemia K562 cells (3–5 × 10^4 cells) and a serial (5-fold) dilution of the test compounds were added to a 96-well microtiter plate. The cells were incubated for 72 h at 37 °C in a humidified 5% CO2 atmosphere. At the end of the incubation period, the cells were counted in a Coulter Counter (Coulter Electronics Ltd., Harpenden Herts, United Kingdom). The IC50 (50% inhibitory concentration) was defined as the concentration of compound that inhibited cell proliferation by 50%. The IC50 values represent the average (± standard deviation) of three independent experiments. Human peripheral blood mononuclear cells (PBMC) were obtained from healthy donors by centrifugation with Ficoll-Paque Plus (GE Healthcare Bio-Sciences AB, Uppsala).

[5] = tested on: L1210, CEM, and HeLa cells; assay: Antiproliferative activity, panel of three cancer cell lines; type: cell-based; conditions: for IC50: span over L1210, CEM and HeLa, read-out: IC50 values against the panel of three cancer cell lines
Text: (§4) In Table 1 we report the in vitro antiproliferative activity of 2-(3′,4′,5′-trimethoxyanilino)-4,5,6,7-tetrahydrothieno[2,3-c]pyridine derivatives 3a–3j and the related 4,5,6,7-tetrahydrobenzo[b]thiophenes 3k–3p against a panel of three cell lines, which were derived from different cancer types, including murine leukemia (L1210), human T-lymphoblastoid leukemia (CEM), and human cervix carcinoma (HeLa) cells.
as §3

[6] = tested on: murine leukemia (L1210) cells; assay: In vitro antiproliferative assay, L1210 cells; type: cell-based; conditions: Mus musculus; murine leukemia L1210, 72 h, cell count; mean ± SE
Text: as §4, §3

[7] = tested on: tubulin (colchicine site); assay: Inhibition of [3H]colchicine binding to tubulin; set-up: species or system Bovine; conditions: tubulin 1 μM, colchicine 5 μM, compound 5 μM
Protocol: as §1

K562 cells [8] = assay: Cell cycle distribution by flow cytometry (Muse Cell Analyzer); type: cell-based, human; conditions: K562, 72 h, three experiments, average ± S.D.; for percentage of G2/M-phase cells at IC50: at IC50 (3a 0.75 μM, 3b 0.70 μM); for percentage of G2/M-phase cells at IC75: at IC75 (3a 1.0 μM, 3b 0.90 μM)
Protocol: The cells were cultured for 72 h in the presence of two different concentrations (IC50 and IC75) for each tested derivative and the obtained results were compared with non-treated K562 cells as control.
Human leukemia K562 cells were treated with compounds 3a or 3b, and analysis of the distribution of the cells through the cell cycle was performed with the Muse Cell Analyzer instrument (Millipore Corporation, Billerica, MA, USA). Assay and cell counting were performed according to the instructions supplied by the manufacturer. Samples were collected after the treatment and washed in PBS. For analysis, 5 × 10^5 cells were resuspended in 200 μL of Muse Cell Cycle Reagent, incubated for 30 min at room temperature, and the cell suspension was transferred to a 1.5 mL microcentrifuge tube prior to analysis. Cells were analyzed by fluorescence-activated cell sorting analysis using a Muse Cell Analyzer.

[9] = tested on: human peripheral blood mononuclear cells (PBMC); assay: Antiproliferative activity in normal human cells (PBMC); type: cell-based; conditions: 72 h
Protocol: In order to investigate the selective antiproliferative activities of derivatives 3a and 3b in normal human cells, both these molecules were tested in vitro against human peripheral blood mononuclear cells (PBMC) isolated from healthy donors.
as §3

[10] = phytohemagglutin (PHA)-stimulated PBMC, read-out: IC50 PBMC, PHA-stimulated
[11] = resting PBMC from healthy donors, read-out: IC50 PBMC, resting

Row | IC50 (Bovine brain tubulin) | cells undergoing apoptosis (total) at IC50 (K562 cells [1]) | IC50 [2] | IC50 [3] | IC50 [4] | IC50 [5] | IC50 [6] | Colchicine binding % ± SD (inhibition of [3H]colchicine binding) [7] | percentage of G2/M-phase cells at IC50 (K562 cells [8]) | fold lower IC50 than 3a ([5]; against L1210 and HeLa cells) | SMILES | cells undergoing apoptosis (total) at IC75 (K562 cells [1]) | fold more active than 2b against HeLa cells [2] | IC75 K562 [4] | percentage of G2/M-phase cells at IC75 (K562 cells [8]) | IC50 [9, 10] | IC50 [9, 11]
1 | 3800 ± 50 nM | 29.64% | 1900 ± 1200 nM | 2900 ± 2100 nM | 750 nM | 1900 to 4700 nM | 4700 ± 400 nM | 29 ± 1% | 33.6% ± 1.1% | – | COC(=O)N1CCc2c(sc(Nc3cc(OC)c(OC)c(OC)c3)c2C#N)C1 [Compound 3a, Methyl 3-cyano-2-((3,4,5-trimethoxyphenyl)amino)-4,5-dihydrothieno[2,3-c]pyridine-6(7H)-carboxylate] | 46.68% | 40 fold | 1000 nM | 34.9% ± 1.3% | > 20000 nM | > 20000 nM
2 | 3400 ± 50 nM | 32.87% | 1100 nM | 2300 ± 1700 nM | 700 nM | 1100 to 2800 nM | 2800 ± 2300 nM | 31 ± 1% | 30.3% ± 1.3% | 1.5 fold | CCOC(=O)N1CCc2c(sc(Nc3cc(OC)c(OC)c(OC)c3)c2C#N)C1 [Compound 3b, Ethyl 3-cyano-2-((3,4,5-trimethoxyphenyl)amino)-4,5-dihydrothieno[2,3-c]pyridine-6(7H)-carboxylate] | 56.01% | 20 fold | 900 nM | 33.5% ± 0.6% | > 20000 nM | > 20000 nM

From paper PMC7181277, “Synthesis and Biological Evaluation of New Antitubulin Agents Containing 2-(3′,4′,5′-trimethoxyanilino)-3,6-disubstituted-4,5,6,7-tetrahydrothieno[2,3-c]pyridine Scaffold” (Molecules, 2020)
